Reference: patent US12459915B2, “Biaryl derivative useful as diacylglycerol acyltransferase 2 inhibitor, and use thereof” (LG CHEM, LTD., priority 2020, dated 2025)

Target: Recombinant human DGAT2 protein (Homo sapiens (Human), UniProt Q96PD7)
Assay: Measurement of inhibitory effect against DGAT2 enzyme activity (SPA, Phospholipid Flash Plate)
Format: biochemical
Details: DGAT2-membrane protein from Sf-21 cells, [14C] oleoyl CoA, 1,2 sn-oleoyl glycerol, 37° C.; read-out: IC50 (concentration of the compound that inhibits TG production by 50%)
Procedure: In order to prepare the pBacPAK9-DGAT2, which is DGAT2 expression vector, the human DGAT2 gene amplified by polymerase chain reaction (PCR) was cloned into the EcoR1 and Xho1 sites of the pBacPAK9 (clonctech) vector. The nucleotide sequence of the primers used in PCR was the forward primer 5′ […] and the reverse primer 5′ […]. The composition of the reaction solution was to contain 50 ng of cDNA clone (OriGene), 200 μM of dATP, dCTP, dTTP, dGTP, 200 nM of each primer, 1 unit of Tag DNA Polymerase (Toyobo), 1×PCR buffer, and the final volume was adjusted to 20 μl. […]
Recombinant human DGAT2 protein was expressed in Sf-21 cells, which are insect cells, by using the BacPack baculovirus expression system (Clontech). […] Protein concentration was quantified by using the BCA Protein Assay Kit (Thermo Scientific).
In vitro DGAT2 analysis was performed using a Phospholipid Flash Plate (PerkinElmer) based on the principle of SPA (Scintilation Proximity Assay). […] The next day, the amplified scintillation signal (cpm) in Topcounter (Packard) was measured to measure the degree of production of [14C]-labeled triacyl glycerol (TG) as a reaction product. The measured value when the compound was not treated was used as a positive control, and the measured value of the compound treated group was calculated as a relative % to measure the inhibition effect of the compound on TG production. […]

Chain of Recombinant human DGAT2 protein (Q96PD7 whole entry): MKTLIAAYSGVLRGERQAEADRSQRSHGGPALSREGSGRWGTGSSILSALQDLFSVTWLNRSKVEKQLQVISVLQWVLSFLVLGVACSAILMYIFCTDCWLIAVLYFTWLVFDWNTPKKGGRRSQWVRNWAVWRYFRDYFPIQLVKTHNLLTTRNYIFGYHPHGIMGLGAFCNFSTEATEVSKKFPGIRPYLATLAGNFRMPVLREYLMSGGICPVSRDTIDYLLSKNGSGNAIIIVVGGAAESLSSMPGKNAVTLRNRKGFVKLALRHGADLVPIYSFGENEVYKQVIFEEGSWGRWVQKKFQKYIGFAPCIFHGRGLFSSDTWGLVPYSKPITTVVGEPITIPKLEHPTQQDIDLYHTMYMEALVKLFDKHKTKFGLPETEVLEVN

CCOc1ccccc1Oc1cccc(-c2cncc(NC(=O)Cc3ccc(CC(=O)O)cc3)n2)c1 [Example 11, 2-(4-(2-((6-(3-(2-ethoxyphenoxy)phenyl)pyrazin-2-yl)amino)-2-oxoethyl)phenyl)acetic acid]
IC50: 0.37 µM
